System: anxiety
Assay: Intranasal ketamine spray given to individual adult subjects for anxiety before a procedure or flight (case reports)

CNC1(c2ccccc2Cl)CCCCC1=O (stereo not drawn) [ketamine]
duration of relief from anxiety and calming effect (Example I: healthy person, intranasal, about 0.2-0.3 mg/kg): 15 to 30 min | development of anxiety during the dental procedure (Example II: person with severe dental phobia, dental extraction under local anesthetic, intranasal unit dose before travel, additional dosage in the waiting room): without the development of anxiety | duration of relief from anxiety and calming effect (Example II: person with severe dental phobia, intranasal unit dose as in Example I): 15 to 30 min

Source: patent US20250255834A1, “ANXIOLYTIC COMPOSITION, FORMULATION AND METHOD OF USE” (priority 2012, published 2025)
